target: human Nav1.8 (Homo sapiens (Human), UniProt Q9Y5Y9); test: QPatch 48 HTX electrophysiology assay, half inactivation state voltage protocol (V1/2), HEK293-Nav1.8 cells; type: cell-based; details: HEK293 cells expressing human Nav1.8, human Navβ1 and human TREK1; V1/2 protocol, P2 current; IC50 in molar; average where more than one run
Method: Human embryonic kidney 293 cells (HEK293) expressing human Nav1.8, human Navβ1 and human TREK1 (HEK293-Nav1.8) were grown at 37° C., 5% CO2 in 150 cm^2 flasks. HEK293-Nav1.8 were passaged every 2-3 days into T175 cell culture flasks when confluency reached 80-90%.
Pharmacological assessment of the compounds of the invention was performed using HEK293-Nav1.8 in combination with an assay developed on the QPatch 48 HTX electrophysiological system. HEK293-Nav1.8 were prepared on the day of use by removing culture media, washing in DPBS, adding Accutase (2 ml to cover the surface, aspirate 1 ml then 1.5 min at 37° C.) followed by addition of CHO-SFM II to stop the enzyme digestion and in order to obtain a suspension of 3×10^6 cell/mL.
Compound was prepared in an extracellular solution of the following composition: NaCl (145 mM), KCl (4 mM), CaCl2 (2 mM), MgCl2 (2 mM), HEPES (1 mM), Glucose (10 mM), pH 7.4 with NaOH Osmolality 300 mOsM/L. The intracellular solution was used of the following composition: CsF (115 mM), CsCl (20 mM), NaCl (5 mM), EGTA (10 mM), HEPES (10 mM), Sucrose (20 mM), pH 7.2 with CsOH Osmolality 310 mOsm/L.
Utilizing the voltage-clamp mode in the QPatch 48 HTX system a half inactivation state voltage protocol (V1/2) was used to determine pharmacological activity of compounds of the invention at Nav1.8 ion channels. A V1/2 protocol was utilized with the following voltage steps: a holding voltage of −100 mV was established followed by a 20 ms voltage step to 0 mV (P1), followed by an inactivating voltage step at −46 mV for 8 seconds, followed by a step to −100 mV for 20 ms, before a 20 ms step to 0 mV (P2) before returning to the holding voltage of −100 mV. This voltage protocol was repeated at a frequency of 0.07 Hz., current magnitude was quantified at the P2 step throughout the recording. Inhibition of the measured current amplitude with the compounds of the invention was analyzed by fitting a 4-8 point dose-response curve allowing determination of the fifty percent inhibition concentration (IC50). Within the QPatch HTX software, P2 current was normalized according to measurements made at baseline after compound and after positive reference compound and fit to the following equation: […]
To assess current run-down over the course of the experiment vehicle-only wells were utilized and the normalized current with vehicle-only (n.IVEH) was determined. To correct the compound response for run-down, the currents were corrected according the following formula: […]
Compounds of the invention were tested for activity against […]. Potency of the compounds of the invention is reported as a pIC50 value. The pIC50 value is the negative log of the IC50 value, wherein the IC50 value is the half maximal inhibitory concentration measured in molar (M). For compounds tested in more than one experimental run, the pIC50 value is reported as an average.

Chain of human Nav1.8 (Q9Y5Y9 whole entry): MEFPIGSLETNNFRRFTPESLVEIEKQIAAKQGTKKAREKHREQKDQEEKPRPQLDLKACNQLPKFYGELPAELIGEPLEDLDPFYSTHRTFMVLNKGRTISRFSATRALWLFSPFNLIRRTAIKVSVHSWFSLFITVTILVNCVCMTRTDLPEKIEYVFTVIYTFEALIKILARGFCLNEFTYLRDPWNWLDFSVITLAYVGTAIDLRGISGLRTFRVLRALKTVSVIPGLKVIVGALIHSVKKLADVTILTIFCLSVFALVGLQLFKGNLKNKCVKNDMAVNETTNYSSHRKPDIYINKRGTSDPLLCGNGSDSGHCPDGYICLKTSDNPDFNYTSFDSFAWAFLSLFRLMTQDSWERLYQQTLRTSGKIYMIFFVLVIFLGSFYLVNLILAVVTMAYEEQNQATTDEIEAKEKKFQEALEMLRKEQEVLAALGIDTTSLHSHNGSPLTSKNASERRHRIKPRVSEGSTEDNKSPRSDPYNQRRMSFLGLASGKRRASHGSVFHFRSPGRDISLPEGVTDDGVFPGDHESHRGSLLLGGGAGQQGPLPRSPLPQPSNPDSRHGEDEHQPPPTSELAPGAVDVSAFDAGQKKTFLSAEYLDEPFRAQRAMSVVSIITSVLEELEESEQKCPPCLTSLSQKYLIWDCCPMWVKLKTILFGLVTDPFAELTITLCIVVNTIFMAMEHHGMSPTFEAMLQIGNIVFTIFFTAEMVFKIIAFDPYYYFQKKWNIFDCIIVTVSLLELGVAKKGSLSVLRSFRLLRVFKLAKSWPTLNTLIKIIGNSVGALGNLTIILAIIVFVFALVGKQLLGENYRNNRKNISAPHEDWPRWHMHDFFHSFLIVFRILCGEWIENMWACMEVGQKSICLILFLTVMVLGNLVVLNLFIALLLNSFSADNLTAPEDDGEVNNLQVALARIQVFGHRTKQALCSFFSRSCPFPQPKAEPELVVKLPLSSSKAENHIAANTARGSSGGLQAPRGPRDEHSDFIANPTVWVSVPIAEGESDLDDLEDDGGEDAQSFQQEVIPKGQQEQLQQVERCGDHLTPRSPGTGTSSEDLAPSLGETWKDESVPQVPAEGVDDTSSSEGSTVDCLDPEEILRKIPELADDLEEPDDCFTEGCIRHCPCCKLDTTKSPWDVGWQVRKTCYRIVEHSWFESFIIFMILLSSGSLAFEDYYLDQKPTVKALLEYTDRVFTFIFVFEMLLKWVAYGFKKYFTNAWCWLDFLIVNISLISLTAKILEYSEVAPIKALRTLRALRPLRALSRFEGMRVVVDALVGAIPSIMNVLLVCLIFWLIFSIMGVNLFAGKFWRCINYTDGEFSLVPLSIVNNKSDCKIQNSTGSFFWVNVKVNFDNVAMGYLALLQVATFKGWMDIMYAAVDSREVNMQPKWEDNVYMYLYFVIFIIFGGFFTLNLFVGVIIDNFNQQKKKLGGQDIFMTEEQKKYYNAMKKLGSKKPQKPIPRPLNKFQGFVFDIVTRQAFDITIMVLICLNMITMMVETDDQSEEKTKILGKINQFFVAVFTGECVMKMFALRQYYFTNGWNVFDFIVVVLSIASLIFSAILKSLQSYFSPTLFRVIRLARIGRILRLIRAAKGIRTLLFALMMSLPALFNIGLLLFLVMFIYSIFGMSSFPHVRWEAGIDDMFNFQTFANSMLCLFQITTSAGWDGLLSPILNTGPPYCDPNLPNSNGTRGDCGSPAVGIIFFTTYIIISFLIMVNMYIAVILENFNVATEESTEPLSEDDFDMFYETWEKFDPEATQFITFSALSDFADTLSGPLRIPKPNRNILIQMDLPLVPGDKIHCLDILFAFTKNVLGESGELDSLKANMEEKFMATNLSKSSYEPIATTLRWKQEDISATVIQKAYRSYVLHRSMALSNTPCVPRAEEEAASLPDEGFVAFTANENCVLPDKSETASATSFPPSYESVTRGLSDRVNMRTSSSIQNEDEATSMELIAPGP
Chain of human Nav1.8 (Q07699 19-218 partner): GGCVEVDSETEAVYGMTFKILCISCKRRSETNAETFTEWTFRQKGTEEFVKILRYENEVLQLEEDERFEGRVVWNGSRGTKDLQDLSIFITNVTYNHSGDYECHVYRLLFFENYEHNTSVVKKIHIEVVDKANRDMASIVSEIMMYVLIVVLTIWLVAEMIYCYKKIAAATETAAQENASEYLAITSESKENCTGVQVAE

Row | SMILES | [Nav1.8] pIC50
1 | Cc1cc(F)ccc1N1CN(c2ccc(=O)[nH]c2C)C(=O)c2ncc(C(F)(F)F)cc21 [Example 1, 1-(4-Fluoro-2-methylphenyl)-3-(2-methyl-6-oxo-1,6-dihydropyridin-3-yl)-7-(trifluoromethyl)-2,3-dihydropyrido[3,2-d]pyrimidin-4(1H)-one] | 5.9
2 | Cc1cc(F)ccc1N1CN(c2ccc(=O)[nH]c2C)C(=O)c2cnc(C(F)(F)F)nc21 [Example 2, 1-(4-Fluoro-2-methylphenyl)-3-(2-methyl-6-oxo-1,6-dihydropyridin-3-yl)-7-(trifluoromethyl)-2,3-dihydropyrimido[4,5-d]pyrimidin-4(1H)-one] | 6
3 | Cc1[nH]c(=O)ccc1N1CN(c2ccc(F)cc2C(C)C)c2cnc(Cl)cc2C1=O [Example 3, 6-Chloro-1-(4-fluoro-2-isopropylphenyl)-3-(2-methyl-6-oxo-1,6-dihydropyridin-3-yl)-2,3-dihydropyrido[3,4-d]pyrimidin-4(1H)-one] | 7
4 | Cc1cc(F)ccc1N1CN(c2ccc(=O)[nH]c2C)C(=O)c2cnc(C(F)(F)F)cc21 [Example 4, 1-(4-Fluoro-2-methylphenyl)-3-(2-methyl-6-oxo-1,6-dihydropyridin-3-yl)-7-(trifluoromethyl)-2,3-dihydropyrido[4,3-d]pyrimidin-4(1H)-one] | 6.8
5 | Cc1[nH]c(=O)ccc1N1CN(c2ccc(F)cc2C(C)C)c2cnc(C(F)(F)F)cc2C1=O [Example 5, 1-(4-Fluoro-2-isopropylphenyl)-3-(2-methyl-6-oxo-1,6-dihydropyridin-3-yl)-6-(trifluoromethyl)-2,3-dihydropyrido[3,4-d]pyrimidin-4(1H)-one] | 7.2
6 | Cc1cc(F)ccc1N1CN(c2ccc(=O)[nH]c2C)C(=O)c2cc(C(F)(F)F)ncc21 [Example 6, 1-(4-Fluoro-2-methylphenyl)-3-(2-methyl-6-oxo-1,6-dihydropyridin-3-yl)-6-(trifluoromethyl)-2,3-dihydropyrido[3,4-d]pyrimidin-4(1H)-one] | 7
7 | Cc1cc(F)ccc1N1CN(c2ccc(=O)[nH]c2C)C(=O)c2ncc(C(F)(F)F)nc21 [Example 7, 1-(4-Fluoro-2-methylphenyl)-3-(2-methyl-6-oxo-1,6-dihydropyridin-3-yl)-7-(trifluoromethyl)-2,3-dihydropteridin-4(1H)-one] | 5.4
8 | Cc1cc(F)ccc1N1CN(c2ccc(=O)[nH]c2C)C(=O)c2nc(C(F)(F)F)cnc21 [Example 8, 1-(4-Fluoro-2-methylphenyl)-3-(2-methyl-6-oxo-1,6-dihydropyridin-3-yl)-6-(trifluoromethyl)-2,3-dihydropteridin-4(1H)-one] | 5.1
9 | Cc1[nH]c(=O)ccc1N1CN(c2ccc(F)cc2C(C)C)c2ccc(Cl)nc2C1=O [Example 9, 6-Chloro-1-(4-fluoro-2-isopropylphenyl)-3-(2-methyl-6-oxo-1,6-dihydropyridin-3-yl)-2,3-dihydropyrido[3,2-d]pyrimidin-4(1H)-one] | 5.8
10 | CCc1c(N2CN(c3ccc(=O)[nH]c3C)C(=O)c3cc(C(F)(F)F)ncc32)ccc(F)c1F [Example 10, 1-(2-Ethyl-3,4-difluorophenyl)-3-(2-methyl-6-oxo-1,6-dihydropyridin-3-yl)-6-(trifluoromethyl)-2,3-dihydropyrido[3,4-d]pyrimidin-4(1H)-one] | 7.5
11 | Cc1cc(F)ccc1N1CN(c2cc(F)c(=O)[nH]c2C)C(=O)c2cc(C(F)(F)F)ncc21 [Example 11, 3-(5-Fluoro-2-methyl-6-oxo-1,6-dihydropyridin-3-yl)-1-(4-fluoro-2-methylphenyl)-6-(trifluoromethyl)-2,3-dihydropyrido[3,4-d]pyrimidin-4(1H)-one] | 6.5
12 | Cc1cc(F)ccc1N1CN(c2ccc(=O)[nH]c2C)C(=O)c2ccncc21 [Example 12, 1-(4-Fluoro-2-methylphenyl)-3-(2-methyl-6-oxo-1,6-dihydropyridin-3-yl)-2,3-dihydropyrido[3,4-d]pyrimidin-4(1H)-one] | 5.3
13 | CCc1cc(F)ccc1N1CN(c2ccc(=O)[nH]c2C)C(=O)c2cc(C(F)(F)F)ncc21 [Example 14, 1-(2-Ethyl-4-fluorophenyl)-3-(2-methyl-6-oxo-1,6-dihydropyridin-3-yl)-6-(trifluoromethyl)-2,3-dihydropyrido[3,4-d]pyrimidin-4(1H)-one] | 7.1
14 | Cc1cc(F)ccc1N1CN(c2ccc(=O)[nH]c2C)C(=O)c2cc(Cl)ncc21 [Example 15, 6-Chloro-1-(4-fluoro-2-methylphenyl)-3-(2-methyl-6-oxo-1,6-dihydropyridin-3-yl)-2,3-dihydropyrido[3,4-d]pyrimidin-4(1H)-one] | 6.6
15 | Cc1cc(OC(F)(F)F)ccc1N1CN(c2ccc(=O)[nH]c2C)C(=O)c2cc(C(F)(F)F)ncc21 [Example 16, 1-(2-Methyl-4-(trifluoromethoxy)phenyl)-3-(2-methyl-6-oxo-1,6-dihydropyridin-3-yl)-6-(trifluoromethyl)-2,3-dihydropyrido[3,4-d]pyrimidin-4(1H)-one] | 7.9
16 | Cc1[nH]c(=O)ccc1N1CN(c2ccc(F)c(F)c2C)c2cnc(C(F)(F)F)cc2C1=O [Example 17, 1-(3,4-Difluoro-2-methylphenyl)-3-(2-methyl-6-oxo-1,6-dihydropyridin-3-yl)-6-(trifluoromethyl)-2,3-dihydropyrido[3,4-d]pyrimidin-4(1H)-one] | 7.2
17 | Cc1cc(F)ccc1N1CN(c2ccc(=O)[nH]c2C)C(=O)c2cnc(Cl)cc21 [Example 18, 7-Chloro-1-(4-fluoro-2-methylphenyl)-3-(2-methyl-6-oxo-1,6-dihydropyridin-3-yl)-2,3-dihydropyrido[4,3-d]pyrimidin-4(1H)-one] | 6.6
18 | Cc1cc(F)ccc1N1CN(c2ccc(=O)[nH]c2C)C(=O)c2cnc(C#N)cc21 [Example 19, 1-(4-Fluoro-2-methylphenyl)-3-(2-methyl-6-oxo-1,6-dihydropyridin-3-yl)-4-oxo-1,2,3,4-tetrahydropyrido[4,3-d]pyrimidine-7-carbonitrile] | 5.4
19 | CCc1cc(F)ccc1N1CN(c2ccc(=O)[nH]c2C)C(=O)c2cnc(C(F)(F)F)cc21 [Example 20, 1-(2-Ethyl-4-fluorophenyl)-3-(2-methyl-6-oxo-1,6-dihydropyridin-3-yl)-7-(trifluoromethyl)-2,3-dihydropyrido[4,3-d]pyrimidin-4(1H)-one] | 7.1
20 | Cc1cc(OC(F)(F)F)ccc1N1CN(c2cc(F)c(=O)[nH]c2C)C(=O)c2cc(C(F)(F)F)ncc21 [Example 21, 3-(5-Fluoro-2-methyl-6-oxo-1,6-dihydropyridin-3-yl)-1-(2-methyl-4-(trifluoromethoxy)phenyl)-6-(trifluoromethyl)-2,3-dihydropyrido[3,4-d]pyrimidin-4(1H)-one] | 7.4
21 | Cc1cc(F)ccc1N1CN(c2ccc(=O)[nH]c2C)C(=O)c2cc(C#N)ncc21 [Example 22, 1-(4-Fluoro-2-methylphenyl)-3-(2-methyl-6-oxo-1,6-dihydropyridin-3-yl)-4-oxo-1,2,3,4-tetrahydropyrido[3,4-d]pyrimidine-6-carbonitrile] | 5.4
22 | Cc1c[n+]([O-])ccc1N1CN(c2ccc(OC(F)(F)F)cc2C)c2cnc(C(F)(F)F)cc2C1=O [Example 23, 3-Methyl-4-(1-(2-methyl-4-(trifluoromethoxy)phenyl)-4-oxo-6-(trifluoromethyl)-1,4-dihydropyrido[3,4-d]pyrimidin-3(2H)-yl)pyridine 1-oxide] | 6.7
